# Measured values from publication PMC8397634 (Journal of Natural Medicines, 2021).
# Like-named read-outs stand apart in the source and are kept apart here.
# Tests used:
# α7 nAChR = settings: ref 2 (Alijevic, et al.); cited from earlier work
# muscle-type nAChR = target: T1, muscle-type nAChR (Homo sapiens, UniProt P02708+P07510+Q07001); assay: Muscle-type nAChR radioligand binding (target profiling); settings: 10 µM single concentration; effect greater than 50% considered significant
# T1 construct: TE671 cells; host or cells: TE671 cells (endogenous)
# T1 sequence (P02708 21-457): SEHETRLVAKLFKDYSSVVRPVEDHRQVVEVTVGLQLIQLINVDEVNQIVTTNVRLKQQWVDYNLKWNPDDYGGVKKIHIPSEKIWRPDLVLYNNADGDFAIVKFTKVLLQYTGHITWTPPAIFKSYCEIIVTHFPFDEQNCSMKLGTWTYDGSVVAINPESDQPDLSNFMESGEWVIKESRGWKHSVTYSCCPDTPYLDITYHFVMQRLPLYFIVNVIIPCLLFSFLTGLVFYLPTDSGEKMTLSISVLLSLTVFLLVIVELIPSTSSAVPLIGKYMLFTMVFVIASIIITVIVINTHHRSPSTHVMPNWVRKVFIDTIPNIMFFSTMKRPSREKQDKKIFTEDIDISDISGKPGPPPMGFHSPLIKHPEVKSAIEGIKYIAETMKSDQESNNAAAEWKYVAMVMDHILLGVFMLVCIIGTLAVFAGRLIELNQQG
# T1 sequence (Q07001 22-517): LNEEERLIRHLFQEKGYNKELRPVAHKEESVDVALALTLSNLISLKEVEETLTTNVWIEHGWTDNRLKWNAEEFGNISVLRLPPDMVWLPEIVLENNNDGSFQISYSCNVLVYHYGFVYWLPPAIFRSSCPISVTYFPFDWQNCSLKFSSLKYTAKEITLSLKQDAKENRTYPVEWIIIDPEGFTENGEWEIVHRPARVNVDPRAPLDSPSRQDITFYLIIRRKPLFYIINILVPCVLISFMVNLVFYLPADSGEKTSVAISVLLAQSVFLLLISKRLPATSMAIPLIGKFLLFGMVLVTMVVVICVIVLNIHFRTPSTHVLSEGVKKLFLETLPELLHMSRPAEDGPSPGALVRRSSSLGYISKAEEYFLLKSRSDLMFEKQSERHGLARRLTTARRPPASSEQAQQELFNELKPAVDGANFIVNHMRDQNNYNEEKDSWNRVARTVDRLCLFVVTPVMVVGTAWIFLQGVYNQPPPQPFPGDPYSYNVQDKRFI
# T1 sequence (P07510 23-517): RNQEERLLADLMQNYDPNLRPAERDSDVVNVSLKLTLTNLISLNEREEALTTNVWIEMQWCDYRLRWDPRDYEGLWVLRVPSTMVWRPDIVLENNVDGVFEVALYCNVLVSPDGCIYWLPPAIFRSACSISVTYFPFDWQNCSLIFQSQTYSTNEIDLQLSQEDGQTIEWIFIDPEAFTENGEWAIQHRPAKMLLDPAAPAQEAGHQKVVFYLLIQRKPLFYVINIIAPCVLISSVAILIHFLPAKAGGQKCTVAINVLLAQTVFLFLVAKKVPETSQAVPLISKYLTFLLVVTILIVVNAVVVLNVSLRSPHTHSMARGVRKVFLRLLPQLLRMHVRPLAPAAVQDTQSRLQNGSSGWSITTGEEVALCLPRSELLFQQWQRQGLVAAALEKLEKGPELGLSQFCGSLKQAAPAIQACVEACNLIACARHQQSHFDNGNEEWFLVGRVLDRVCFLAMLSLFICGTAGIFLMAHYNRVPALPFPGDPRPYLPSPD
# Method: (§1) All binding and functional assays for molecular target characterization were conducted by Eurofins Cerep SA (Celle-Lévescault, France) and Eurofins Panlabs Discovery Services Taiwan, Ltd. (New Taipei City, Taiwan) using their standard in vitro binding and functional assays (Online Source 2). The radioligand displacement binding assays employed the gold-standard filtration method using membrane preparations from stable cell lines expressing human or rodent target proteins to determine the interaction of the compounds with specific receptors, channels, and transporters. For this purpose, the competitive binding of test compounds against a [^125I]-, [^3H]-, or [^35S]-labeled agonist and/or antagonist was determined. The specific list of radiolabeled ligands and experimental conditions are summarized in Online Source 2. A single concentration of each compound (10 µM in 0.1% DMSO) was used for the screen. […] Negative values were considered to be an artifact arising from, for example, compounds interfering with the assay readout.
# (§2) Assay Source Ligand Conc. Kd Non Specific Incubation Detection Bibl.
# α4β2 nAChRs [1] = target: T2, α4β2 nAChRs (Homo sapiens, UniProt P17787+P43681); assay: In vitro nAChR functional assay (automated patch-clamp, CHO cells); assay type: cell-based
# T2 sequence (P43681 29-627 limits assumed): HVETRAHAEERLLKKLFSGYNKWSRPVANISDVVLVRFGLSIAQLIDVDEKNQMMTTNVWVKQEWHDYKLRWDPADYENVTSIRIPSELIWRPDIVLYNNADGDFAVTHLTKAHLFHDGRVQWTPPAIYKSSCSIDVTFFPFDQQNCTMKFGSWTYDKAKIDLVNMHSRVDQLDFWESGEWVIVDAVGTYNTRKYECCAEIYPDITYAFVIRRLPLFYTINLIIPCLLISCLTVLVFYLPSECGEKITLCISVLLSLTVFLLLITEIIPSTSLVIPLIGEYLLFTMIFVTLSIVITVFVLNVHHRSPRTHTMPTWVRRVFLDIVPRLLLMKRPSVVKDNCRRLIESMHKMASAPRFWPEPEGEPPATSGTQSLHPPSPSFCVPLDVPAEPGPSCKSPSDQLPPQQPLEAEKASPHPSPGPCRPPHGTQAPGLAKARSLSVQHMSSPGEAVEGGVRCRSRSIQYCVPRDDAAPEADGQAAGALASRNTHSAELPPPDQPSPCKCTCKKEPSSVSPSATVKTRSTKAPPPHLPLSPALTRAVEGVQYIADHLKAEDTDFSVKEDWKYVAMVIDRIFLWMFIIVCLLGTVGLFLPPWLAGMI
# T2 sequence (P17787 26-502): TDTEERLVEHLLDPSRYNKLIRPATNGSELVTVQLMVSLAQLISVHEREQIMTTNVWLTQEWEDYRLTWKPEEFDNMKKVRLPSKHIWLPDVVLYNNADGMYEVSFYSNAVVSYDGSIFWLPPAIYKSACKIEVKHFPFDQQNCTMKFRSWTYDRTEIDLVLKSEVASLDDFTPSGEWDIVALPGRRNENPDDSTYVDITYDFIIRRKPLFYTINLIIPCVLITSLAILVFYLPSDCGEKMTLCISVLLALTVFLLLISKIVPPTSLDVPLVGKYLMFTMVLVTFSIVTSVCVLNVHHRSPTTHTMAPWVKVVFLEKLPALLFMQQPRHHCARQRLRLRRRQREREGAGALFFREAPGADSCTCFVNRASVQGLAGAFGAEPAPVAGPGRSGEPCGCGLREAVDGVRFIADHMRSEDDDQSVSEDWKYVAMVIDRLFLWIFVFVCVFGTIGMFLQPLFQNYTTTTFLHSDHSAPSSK
# Method: Electrophysiological responses were recorded using an automated patch-clamp Patchliner Octo® system (Nanion Technologies, Munich, Germany) equipped with two EPC-10 Quadro patch-clamp amplifiers (HEKA Elektronik, Lambrecht, Germany) as described previously. Chinese hamster ovarian (CHO) cells stably expressing human α4β2 nAChRs (Charles River Laboratories, Wilmington, MA, USA) were used. All experiments were performed at room temperature (24 °C) and repeated at least three times. Data were analyzed using Patchmaster software (HEKA Elektronik). Offline data analysis was performed in Apache OpenOffice™ (v4.1.2; […]). Igor Pro software (v6.2.2.2; WaveMetrics, Lake Oswego, OR, USA) was used to determine EC50 values. […] The average values were then fitted to the Hill equation: I=Baseline+X^∧nH(Imax-Baseline)/X^∧nH+EC50^∧nH, where I is the current response, Baseline is the minimal current response, X is the agonist concentration, nH is the Hill coefficient, Imax is the maximal current, and EC50 is the agonist concentration producing half-maximal activation. […]
# α4β2 nAChRs [2] = target: T2, α4β2 nAChRs; assay: In vitro α4β2 nAChR radioligand displacement binding assay; parameters: host or cells: SH-SY5Y cells (human recombinant), membrane preparation; settings: 10 µM single concentration; effect greater than 50% considered significant
# Method: as §1, §2
# [3] = Brain bioavailability assay in zebrafish (UPLC-HRMS of brain homogenate); assay type: in vivo, Danio rerio; settings: both sexes, zebrafish (Danio rerio), in vivo, 1 mg/L; zebrafish brain after 20-min exposure; linear relationship assumed; mean ± SEM; read-out: Relative brain level per 1 mg/L compound
# Method: Four fish (2 males and 2 females) per compound were used to determine the brain bioavailability of the compounds. Immediately after the 20-min compound treatment, the zebrafish were rinsed briefly to remove excessive compound on their body and terminated with 250 mg/L tricaine (CAS No. 886-86-2; Sigma). The fish were decapitated at the level of the gills using a surgical knife. The head was turned dorsal side down, and soft tissue was removed from the ventral side of the skull until the base of the skull was exposed. The skull was broken open and the bone from the ventral side of the brain was removed. The brain was then placed in a microcentrifuge tube, weighed, snap-frozen in liquid nitrogen, and stored at – 80 °C until the analysis.
# Briefly, on the day of analysis, the brain samples were defrosted, resuspended in a methanol solution (2:1 [v/v] methanol:MilliQ water), and homogenized with vigorous agitation and ultrasonication (5 min each). The homogenate was centrifuged at 15,000 × rpm for 10 min, and the supernatant was analyzed using a UPLC-Q Exactive Orbitrap-HRMS system (Thermo Fisher Scientific™, Bremen, Germany). Chromatographic separation was achieved on a Synergi™ 4-µm Hydro-RP 80 Å, L.C. Column (250 × 4.6 mm; Phenomenex Inc., Torrance, CA, USA) with 0.1% formic acid in water (mobile phase A) and 0.1% formic acid in acetonitrile (mobile phase B). A gradient method at a 500 µL/min flow rate was applied as follows: (1) 5% B for 1 min, and (2) increase to 95% B over 7 min and hold for 2 min. The injection volume was 5 μL. The mass spectrometer was operated in electrospray positive mode (ESI, Thermo Fisher Scientific), while data acquisition was performed using the parallel reaction monitoring (PRM) and full scan modes. The source settings were set as follows: sheath gas flow rate = 60 psi; aux gas flow rate = 20 arbitrary units; spray voltage = 3.5 kV; capillary temperature = 280 °C; and sweep gas flow rate = 1. The full scan mode parameters were set as follows: resolution = 35,000 FWHM at 200 m/z; AGC target = 1E6; maximum injection time = 110 ms; and scan range = 100–350 m/z. The chromatographic and Orbitrap MS parameters for PRM analysis were the same as those in the full scan mode, except for: AGC target = 2E5; maximum IT = 60 ms; and resolution = 17,500 FWHM at 200 m/z. The XCalibur™ v4.0.27.19 software (Thermo Fisher Scientific) and TraceFinder™ v4.1 Forensic (Thermo Fisher Scientific, San José, CA, USA) were used for system control and data processing, respectively. The Q Exactive 2.8 SP 1 software (Thermo Fisher Scientific) was used to control the mass spectrometer.
# [4] = system: zebrafish (Danio rerio; strain AB)
# Method: The NTT conditions closely matched the most commonly used conditions described by. In brief, adult male and female wild-type zebrafish were treated with the compounds for 20 min in a final volume of 50 mL in a 250-mL treatment beaker, one fish at a time. The fish were briefly rinsed in fresh system water, and then immediately transferred to a trapezoidal tank (14.6-cm height × 5.5-cm width × 27.9-cm top length and × 23.6-cm bottom length) filled with 1.5 L system water. The behavior of the fish was monitored for the next 5 min using the Noldus EthoVision XT system (Wageningen, Netherlands), with the camera placed approximately 1 m from the test tank. The tanks were uniformly illuminated from above at approximately 200 lx, reported to be the optimal illumination condition for NTT [23]. Background noise was kept at a minimum during the test. All experimental parameters were monitored closely and kept as consistent as possible throughout the study. The part of the tank filled with water (11.5-cm height) was virtually divided into top, center, and bottom of equal heights (approximately 3.8 cm per segment) for the analyses. The average time spent at the top and bottom portions of the tank was analyzed to determine the anxiety-like behavior of fish. The average total distance traveled and freezing time (as defined by a complete cessation of movement except for gills and eyes) were calculated to determine the effects of the compounds on the general behavior of fish. The analyses were conducted for 1-min time bins. To account for any day-to-day variability in fish behavior, fish treated with vehicle were tested on the same day as the compounds. […] A minimum of 12 fish (6 females and 6 males) per condition were used for the study. The actual sample size per condition is indicated in Online Resource 1. […] The experimenters were blind to the test conditions. The NTT was validated with buspirone, a clinical anxiolytic drug, as previously described.
# If not, the concentration was reduced until no obvious signs of tolerability problems were observed. […] The concentrations were calculated based on the free base molecular weight.
# Two-way repeated measures analysis of variance (ANOVA) with Dunnett post hoc was used for the 1-min binned analysis of the zebrafish NTT data. Treatment was one factor, and time was the second factor. […] Thus, male and female datasets were combined for the final analyses. […] The EC50 values were determined by applying the nonlinear regression analysis. All analyses were conducted using GraphPad Prism v8.2.1 (GraphPad Software, San Diego, CA, USA).
# [5] = system: other molecular targets (175 in vitro binding and enzymatic assays); assay: In vitro molecular target profiling (175 binding and enzymatic assays); settings: 10 µM single concentration; 175 assays; effect greater than 50% considered significant
# Method: as §1
# 3.1. Experimental Conditions
# In Vitro Pharmacology: Binding Assays
# as §2
Compound,α7 nAChR agonist activity (α7 nAChR),Binding to muscle-type nAChR in target profiling (muscle-type nAChR),% activation of α4β2 nAChR (normalized to nicotine) (α4β2 nAChRs [1]) [%],Binding to α4β2 nAChR in target profiling (α4β2 nAChRs [2]),concentration at 20 min [3] [ng/g],Concentration effective in reducing anxiety-like behavior in NTT ([4]; in vivo) [mg/L],Binding to or regulation of other molecular targets [5],"Emax (α4β2 nAChRs [1]; CHO, read-out: % activation of α4β2 nAChR (normalized to nicotine)) [%]",Freezing time during NTT ([4]; 0.3 mg/L),Concentration effective in reducing anxiety-like behavior in NTT ([4]; 20-min treatment) [mg/L],"Time spent at the bottom of the tank during NTT ([4]; highest concentration tested (10 mg/L), 20-min treatment)",Total distance traveled during NTT ([4]; lowest (0.3 mg/L) and highest (10 mg/L) concentrations)
"CN1CCC[C@H]1c1cccnc1 [Nicotine, (–)-nicotine, reference compound]",weak α7 nAChR agonist,specific binding,100,specific binding,700 ± 140,0.3,did not bind or regulate the activities of other molecular targets,–,–,–,–,–
"C1=CCC(c2cccnc2)NC1 (racemic) [Anatabine, ( ±)-Anatabine]",weak α7 nAChR agonist,specific binding,–,specific binding,440 ± 150,–,did not bind or regulate the activities of other molecular targets,80,increased the freezing time during the first 3 min,10,significantly decreased the time spent at the bottom,slight but significant reduction in the total distance traveled
